Experimental data taken from patent US20260138961A1, “MODULATORS OF MITOCHONDRIAL DNA REPLICATION” (Pretzel Therapeutics, Inc., priority 2022, published 2026).

biological target: T1, POLγA:A467T (Homo sapiens, UniProt P54098, A467T); test: DNA polymerization assay, POLγA:A467T mutant; assay type: biochemical; details: stimulation of polymerase activity, primed M13mp18 ssDNA, 37° C. 2 hours; read-out: A467T AC50
T1 sequence (P54098 1-1239 A467T): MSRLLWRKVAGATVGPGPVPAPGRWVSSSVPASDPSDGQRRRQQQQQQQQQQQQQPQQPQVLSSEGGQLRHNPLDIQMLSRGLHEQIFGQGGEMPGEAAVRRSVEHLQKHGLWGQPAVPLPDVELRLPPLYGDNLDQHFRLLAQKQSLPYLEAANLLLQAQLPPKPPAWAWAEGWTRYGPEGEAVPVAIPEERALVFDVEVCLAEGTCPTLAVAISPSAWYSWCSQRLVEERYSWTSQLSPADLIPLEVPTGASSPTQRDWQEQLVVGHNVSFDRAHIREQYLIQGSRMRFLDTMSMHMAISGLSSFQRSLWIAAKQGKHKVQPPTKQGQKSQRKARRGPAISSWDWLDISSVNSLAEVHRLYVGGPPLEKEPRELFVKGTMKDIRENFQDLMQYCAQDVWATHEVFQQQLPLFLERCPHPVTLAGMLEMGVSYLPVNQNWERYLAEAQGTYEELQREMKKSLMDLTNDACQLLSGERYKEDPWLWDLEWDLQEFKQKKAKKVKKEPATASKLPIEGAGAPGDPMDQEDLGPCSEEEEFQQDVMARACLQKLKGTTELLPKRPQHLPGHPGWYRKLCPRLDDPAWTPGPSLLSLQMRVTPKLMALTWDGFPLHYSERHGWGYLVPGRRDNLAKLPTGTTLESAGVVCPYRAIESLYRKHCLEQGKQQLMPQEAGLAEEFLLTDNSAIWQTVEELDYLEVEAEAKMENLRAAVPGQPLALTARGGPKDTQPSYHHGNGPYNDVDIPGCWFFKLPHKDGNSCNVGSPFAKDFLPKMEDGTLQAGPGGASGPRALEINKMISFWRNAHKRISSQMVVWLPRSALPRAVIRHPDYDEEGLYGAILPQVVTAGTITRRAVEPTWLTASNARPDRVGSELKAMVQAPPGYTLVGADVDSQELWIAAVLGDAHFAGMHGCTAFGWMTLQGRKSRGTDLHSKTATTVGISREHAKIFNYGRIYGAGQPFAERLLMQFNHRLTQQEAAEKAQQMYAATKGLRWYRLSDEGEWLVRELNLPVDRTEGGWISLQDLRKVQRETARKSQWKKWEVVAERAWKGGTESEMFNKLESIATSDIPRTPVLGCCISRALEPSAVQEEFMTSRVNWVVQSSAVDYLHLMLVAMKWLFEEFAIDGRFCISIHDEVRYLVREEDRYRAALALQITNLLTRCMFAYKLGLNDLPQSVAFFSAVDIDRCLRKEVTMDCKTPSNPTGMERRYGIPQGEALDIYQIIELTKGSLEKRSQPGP
T1 sequence (Q9UHN1 1-485 partner): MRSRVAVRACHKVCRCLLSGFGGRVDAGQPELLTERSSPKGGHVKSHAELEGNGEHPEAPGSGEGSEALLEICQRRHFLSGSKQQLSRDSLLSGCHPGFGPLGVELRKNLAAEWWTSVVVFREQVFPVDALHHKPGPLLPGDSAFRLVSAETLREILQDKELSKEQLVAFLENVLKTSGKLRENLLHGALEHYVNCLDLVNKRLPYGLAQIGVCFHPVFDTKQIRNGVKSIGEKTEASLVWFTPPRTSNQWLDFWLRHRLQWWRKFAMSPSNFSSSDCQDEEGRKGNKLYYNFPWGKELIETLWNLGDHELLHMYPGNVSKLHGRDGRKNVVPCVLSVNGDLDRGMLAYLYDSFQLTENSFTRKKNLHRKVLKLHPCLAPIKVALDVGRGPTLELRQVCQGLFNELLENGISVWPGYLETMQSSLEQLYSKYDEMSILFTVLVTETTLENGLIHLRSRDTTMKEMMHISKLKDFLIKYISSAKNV

AC50	SMILES
> 100 µM	Cc1cc(S(=O)(=O)Nc2cccc(C(=O)N(C)C(C)CO)c2)c(C)cc1Cl (single isomer, unassigned) [Example 15, 3-((4-chloro-2,5-dimethylphenyl)sulfonamido)-N-(1-hydroxypropan-2-yl)-N-methylbenzamide]
4 µM	Cc1csc(-c2cccc(NS(=O)(=O)c3cc(C)c(Cl)cc3C)c2)n1 [Example 20, 4-chloro-2,5-dimethyl-N-(3-(4-methylthiazol-2-yl)phenyl)benzenesulfonamide]
3 µM	Cc1cnc(-c2cccc(NS(=O)(=O)c3cc(C)c(Cl)cc3C)c2)s1 [Example 21, 4-chloro-2,5-dimethyl-N-(3-(5-methylthiazol-2-yl)phenyl)benzenesulfonamide]
> 100 µM	Cc1cc(S(=O)(=O)N(C)c2cccc(-c3nccs3)c2)c(C)cc1Cl [Example 22, 4-chloro-N,2,5-trimethyl-N-(3-(thiazol-2-yl)phenyl)benzenesulfonamide]
> 100 µM	Cc1ccccc1S(=O)(=O)Nc1cccc(C(=O)N2CCOC[C@@H]2C)c1 [Example 23, (S)-2-methyl-N-(3-(3-methylmorpholine-4-carbonyl)phenyl)benzenesulfonamide]
> 100 µM	Cc1ccc(C)c(S(=O)(=O)Nc2cccc(C(=O)N3CCSCC3)c2)c1 [Example 24, 2,5-dimethyl-N-(3-(thiomorpholine-4-carbonyl)phenyl)benzenesulfonamide]
> 100 µM	Cc1ccc(C)c(S(=O)(=O)Nc2cccc(C(=O)N(C)C)c2)c1 [Example 25, 3-((2,5-dimethylphenyl)sulfonamido)-N,N-dimethylbenzamide]
> 100 µM	Cc1ccc(C)c(S(=O)(=O)Nc2cccc(C(=O)N(C)Cc3ccccc3)c2)c1 [Example 26, N-benzyl-3-((2,5-dimethylphenyl)sulfonamido)-N-methylbenzamide]
> 100 µM	Cc1ccc(C)c(S(=O)(=O)Nc2cccc(C(N)=O)c2)c1 [Example 27, 3-((2,5-dimethylphenyl)sulfonamido)benzamide]
> 100 µM	Cc1ccc(C)c(S(=O)(=O)Nc2cccc(C(=O)NCc3ccccc3)c2)c1 [Example 28, N-benzyl-3-((2,5-dimethylphenyl)sulfonamido)benzamide]
> 100 µM	Cc1ccc(C)c(S(=O)(=O)Nc2cccc(C(=O)N3CCOCC3)c2)c1 [Example 29, 2,5-dimethyl-N-(3-(morpholine-4-carbonyl)phenyl)benzenesulfonamide]
> 100 µM	CC(=O)N1CCN(C(=O)c2cccc(NS(=O)(=O)c3cc(C)ccc3C)c2)CC1 [Example 30, N-(3-(4-acetylpiperazine-1-carbonyl)phenyl)-2,5-dimethylbenzenesulfonamide]
> 100 µM	Cc1ccc(C)c(S(=O)(=O)Nc2cccc(C(=O)N3CCN(C)CC3)c2)c1 [Example 31, 2,5-dimethyl-N-(3-(4-methylpiperazine-1-carbonyl)phenyl)benzenesulfonamide]
> 100 µM	Cc1ccc(C)c(S(=O)(=O)Nc2cccc(C(=O)N3CCCCCC3)c2)c1 [Example 32, N-(3-(azepane-1-carbonyl)phenyl)-2,5-dimethylbenzenesulfonamide]
> 100 µM	Cc1ccc(C)c(S(=O)(=O)Nc2cccc(C(=O)N(C)CC3CC3)c2)c1 [Example 33, N-(cyclopropylmethyl)-3-((2,5-dimethylphenyl)sulfonamido)-N-methylbenzamide]
> 100 µM	COc1ccc(S(=O)(=O)Nc2cccc(C(=O)N3CCSCC3C#N)c2)cc1 (centres unmarked) [Example 34, N-(3-(3-cyanothiomorpholine-4-carbonyl)phenyl)-4-methoxybenzenesulfonamide]

AC50	SMILES
> 100 µM	N#CC1CSCCN1C(=O)c1cccc(NS(=O)(=O)c2cccc(C(F)(F)F)c2)c1 (centres unmarked) [Example 35, N-(3-(3-cyanothiomorpholine-4-carbonyl)phenyl)-3-(trifluoromethyl)benzenesulfonamide]
> 100 µM	Cc1cc(S(=O)(=O)Nc2cccc3c2CC(=O)N3)c(C)cc1Cl [Example 36, 4-chloro-2,5-dimethyl-N-(2-oxoindolin-4-yl)benzenesulfonamide]
> 100 µM	Cc1cc2c(NS(=O)(=O)c3cc(C)c(Cl)cc3C)cccc2[nH]1 [Example 37, 4-chloro-2,5-dimethyl-N-(2-methyl-1H-indol-4-yl)benzenesulfonamide]
> 100 µM	Cc1ccc(C)c(S(=O)(=O)Nc2cncc(C(=O)N3CCOCC3)c2)c1 [Example 38, 2,5-dimethyl-N-(5-(morpholine-4-carbonyl)pyridin-3-yl)benzenesulfonamide]
> 100 µM	Cc1ccc(C)c(S(=O)(=O)Nc2ccc(C(=O)N[C@@H](C)C3CC3)cc2)c1 [Example 39, (S)-N-(1-cyclopropylethyl)-4-((2,5-dimethylphenyl)sulfonamido)benzamide]
> 100 µM	Cc1ccc(C)c(S(=O)(=O)Nc2ccc(C(=O)NCC3CC3)cc2)c1 [Example 40, N-(cyclopropylmethyl)-4-((2,5-dimethylphenyl)sulfonamido)benzamide]
> 100 µM	Cc1ccc(C)c(S(=O)(=O)Nc2cccc(C(=O)N3CCSCC3C(N)=O)c2)c1 (centres unmarked) [Example 41, 4-(3-((2,5-dimethylphenyl)sulfonamido)benzoyl) thiomorpholine-3-carboxamide]
> 100 µM	Cc1cc(NS(=O)(=O)c2cc(C)ccc2C)cc(C(=O)N2CCCC[C@H]2C)c1 [Example 42, (R)-2,5-dimethyl-N-(3-methyl-5-(2-methylpiperidine-1-carbonyl)phenyl)benzenesulfonamide]
> 100 µM	Cc1ccc(C)c(S(=O)(=O)Nc2ccc(C(=O)N3CCCC[C@H]3C)s2)c1 [Example 43, (R)-2,5-dimethyl-N-(5-(2-methylpiperidine-1-carbonyl)thiopheN-2-yl)benzenesulfonamide]
> 100 µM	Cc1cc(S(=O)(=O)Nc2cccc(C(N)=O)c2)c(C)cc1Cl [Example 44, 3-((4-chloro-2,5-dimethylphenyl)sulfonamido)benzamide]
> 100 µM	Cc1cc(S(=O)(=O)Nc2cccc(C(=O)N3CCNCC3)c2)c(C)cc1Cl [Example 46, 4-chloro-2,5-dimethyl-N-(3-(piperazine-1-carbonyl)phenyl)benzenesulfonamide]
> 100 µM	COCCNC(=O)c1cccc(NS(=O)(=O)c2cc(C)c(Cl)cc2C)c1 [Example 47, 3-((4-chloro-2,5-dimethylphenyl)sulfonamido)-N-(2-methoxyethyl)benzamide]
> 100 µM	Cc1cc(S(=O)(=O)Nc2cccc(C(=O)N[C@H](C)c3ccccc3)c2)c(C)cc1Cl [Example 48, (R)-3-((4-chloro-2,5-dimethylphenyl)sulfonamido)-N-(1-phenylethyl)benzamide]
> 100 µM	Cc1cc(S(=O)(=O)Nc2ccc(F)c(C(=O)N3CCC[C@H]3C)c2)c(C)cc1Cl [Example 49, (R)-4-chloro-N-(4-fluoro-3-(2-methylpyrrolidine-1-carbonyl)phenyl)-2,5-dimethylbenzenesulfonamide]
> 100 µM	Cc1cc(S(=O)(=O)Nc2cc(C(=O)N3CCC[C@H]3C)ccc2F)c(C)cc1Cl [Example 50, (R)-4-chloro-N-(2-fluoro-5-(2-methylpyrrolidine-1-carbonyl)phenyl)-2,5-dimethylbenzenesulfonamide]
> 100 µM	Cc1cc(S(=O)(=O)Nc2cccc(C(=O)N[C@H](C)CO)c2)c(C)cc1Cl [Example 51, (R)-3-((4-chloro-2,5-dimethylphenyl)sulfonamido)-N-(1-hydroxypropan-2-yl)benzamide]
